{"source": "paper PMC13108699", "about": "“Mass balance and metabolite profiling of ^14C-Zalunfiban in humans following single-dose subcutaneous administration” (Xenobiotica; the fate of foreign compounds in biological …, 2025)", "key": {"[1]": {"assay": "Whole blood total radioactivity (AMS) PK after SC ^14C-zalunfiban", "assay_type": "in vivo, human", "protocol": "The planned participant enrolment size was 8, with 2 additional alternate participants available on the morning of dosing. Following a 28-day screening period, all eligible participants were admitted to the research unit the evening before dosing. After fasting overnight, participants completed a standard breakfast prior to dosing on study day 1. After dosing, subjects fasted for 4 h. Fluids were permitted ad libitum starting 1-hour after dosing. […] The clinical study was conducted at the Pharmaron Clinical Pharmacology Centre (Baltimore, MD) and the study protocol, consent forms and regulatory documents were reviewed and approved by the […] Institutional Review Board (Columbia, MD). All participants received the same fixed mass dose of SC 9.5 mg ^14C-zalunfiban (5 μCi), in 0.5 mL of formulation solution. This zalunfiban dose was chosen to both ensure participant safety and to make certain the study results were clinically relevant. For the latter, by strict inclusion of participants with a body weight within the range of 73-99 kg, the zalunfiban doses were no higher than the highest administered in the currently ongoing Phase 3 study, which includes three groups of 0.110 mg/kg zalunfiban, 0.130 mg/kg zalunfiban, and placebo ([NIH 2025]). The ^14C radiolabel dose of 5 μCi presented minimal radiation risk to healthy subjects while providing a high likelihood of meeting the study objectives. […] At the laboratory, extraction of ^14C-zalunfiban from whole blood was achieved by repeated microcentrifugation, vortex mixing, and harvesting to collect analytes (see Metabolite profiling and excretion for more details). […] Whole blood samples were analysed using accelerator mass spectrometry (AMS). Urine sample analysis was performed using liquid scintillation counting analysis. Each sample was counted for at least 10 min or until the 2%2σ terminator was reached. Homogenised faeces samples were combusted in a Perkin Elmer, Model 307 sample oxidiser (Perkin Elmer, Waltham MA). […] For urine and faeces samples, total radioactivity analysis was initially performed using two liquid scintillation counters (LSC), a TriCarb 3180 TR/SL and a TriCarb 5110 TR (Perkin Elmer, Waltham MA). When the measured total radioactivity concentration was above the LLOQ, LSC data were reported. For LSC, the LLOQ was defined as twice the background count rate. If the radioactivity concentration was below the limit of quantification (BLOQ), samples were analysed by Accelerator Mass Spectrometry (AMS). For AMS analysis, the LLOQ for total radioactivity depends on multiple factors, including the carbon content of the sample, and it is provided as the mean of all participant values. The mean (SD) total radioactivity LLOQ for zalunfiban in whole blood was 0.2421 (0.0571) ngEq/mL, for faeces 0.0663 (0.0135) ngEq/gm, and urine 0.0088 (0.0029) ngEq/g. Zalunfiban and whole blood radioactivity concentrations were used to calculate PK parameters using standard non-compartmental analysis (NCA) methods using Phoenix WinNonlin software (Phoenix, Princeton, NJ). All statistical programming and tables, figures and listings were carried out using SAS 9.4 (SAS Institute, Inc., Cary, NC)."}, "[2]": {"assay": "Cumulative excretion of ^14C in urine and faeces (mass balance)", "assay_type": "in vivo, human", "excerpt": "This was a Phase 1, single-centre, open-label, non-controlled, mass balance and metabolite profiling study of ^14C-radiolabeled zalunfiban in health male volunteers (NCT04284995). The planned participant enrolment size was 8, with 2 additional alternate participants available on the morning of dosing. Following a 28-day screening period, all eligible participants were admitted to the research unit the evening before dosing. After fasting overnight, participants completed a standard breakfast prior to dosing on study day 1. After dosing, subjects fasted for 4 h. Fluids were permitted ad libitum starting 1-hour after dosing. […]\nWhole blood samples were analysed using accelerator mass spectrometry (AMS). […] Each sample was counted for at least 10 min or until the 2%2σ terminator was reached. […] The CO2 produced was trapped in a Carbosorb/Permafluor 2:1 v/v (Perkin Elmer, Waltham MA) to determine total carbon content and the ^14C:^12C ratio and then analysed by AMS.\nA carbon content correction based upon pre-dose whole blood samples and urine samples was applied to all post dose samples. As the carbon content of homogenised faeces can be variable, all homogenised faeces samples were analysed by C,H,N using a Thermo Scientific FlashSmart elemental analyser (Waltham, MA). Urea standards were used to calibrate and normalise the C,H,N, and the carbon content of each sample was determined. […]"}}, "note": "Values joined by “and” are separate entries in the source; they are usually repeats but may differ in a detail not shown here. Equal entries are not always repeated.", "data": [{"smiles": "NCC(=O)Nc1cncc(-c2nn3c(=O)cc(N4CCNCC4)nc3s2)c1", "note": "[Zalunfiban, 2-amino-N-{5-[5-oxo-7-(piperazin-1-yl)-5H-[1,3,4]thia-diazolo[3,2-a]pyrimidin-2-yl]pyridin-3-yl}acetamide]", "values": [{"measurement": "Time of first detection of whole blood radioactivity", "setting": "[1]; all participants", "result": 5, "unit": "min"}, {"measurement": "Time to which whole blood total radioactivity remained quantifiable", "setting": "[1]; all subjects except one (216 h)", "result": "up to 240 h"}, {"measurement": "Mean whole blood zalunfiban/total radioactivity expressed as a percentage, AUC0–4", "setting": "[1]; first 4 h after dose", "result": "35.6% and 35%"}, {"measurement": "t1/2, whole blood total radioactivity", "setting": "[1]; mean, overall (0.5 h to 240 h), n=8", "result": 98.3, "unit": "h"}, {"measurement": "Mean whole blood zalunfiban/total radioactivity expressed as a percentage, AUC0-inf", "setting": "[1]; to be interpreted with caution (different assay sensitivity)", "result": 15.1, "unit": "%"}, {"measurement": "Radioactivity recovered in urine and faeces", "setting": "[2]; by 48 h, on average", "result": "more than 80%"}, {"measurement": "Cumulative percentage of recovered ^14C (urine plus faeces)", "setting": "[2]; by 240 h post-dose, range over participants, listed as 14C-zalunfiban", "result": "> 90", "unit": "%"}]}]}
